Data set [1] relates to MIA PaCa-2. Put plainly: Antiproliferative activity against human MIAPaCa2 cells after 70 hrs by alamar blue assay. Type of data set: functional, cell-based. The following applies: MIA PaCa-2, 70 h. On the technique in general: Resazurin is reduced to fluorescent resorufin, in cell work by metabolically active cells.
The subject of data set [2] is HUVEC. Put plainly: Antiproliferative activity against HUVEC after 70 hrs by alamar blue assay. The following applies: Homo sapiens. Type of data set: cell-based.
The subject of data set [3] is BEAS-2B. Put plainly: Antiproliferative activity against human BEAS2B cells after 70 hrs by alamar blue assay. The class given is cell-based.
The test system of data set [4] is HBL-100. Put plainly: Cytotoxicity against human HBL100 cells assessed as reduction in cell viability after 70 hrs by alamar blue assay. The class given is cell-based. The following applies: HBL-100, 70 h.
Data set [5] deals with HUVEC. Put plainly: Cytotoxicity against HUVEC assessed as reduction in cell viability after 70 hrs by alamar blue assay. The class given is cell-based. The following applies: Homo sapiens.
In data set [6] the test system is BEAS-2B. Put plainly: Cytotoxicity against human BEAS2B cells assessed as reduction in cell viability after 70 hrs by alamar blue assay. Type of data set: cell-based.
For data set [7], the system named is A498. Put plainly: Disruption of microtubule network in human A498 cells at 5 times antiproliferative IC50 after 1 to 12 hrs by immunofluorescence assay. The class given is cell-based.
Data set [8] can be described thus: Ratio of IC50 for antiproliferative activity against human BEAS2B cells to IC50 for cytotoxicity against human BEAS2B cells. The class given is cell-based, BEAS-2B. The following applies: read-out: Ratio IC50.
Data set [9] can be described thus: Ratio of IC50 for antiproliferative activity against human MIAPaCa2 cells to IC50 for cytotoxicity against human MIAPaCa2 cells. The arrangement: species or system MIA PaCa-2.
The test system of data set [10] is MIA PaCa-2. Put plainly: Cytotoxicity against human MIAPaCa2 cells assessed as reduction in cell viability after 70 hrs by alamar blue assay. Type of data set: cell-based. The following applies: MIA PaCa-2, 70 h.
Data set [11] can be described thus: Ratio of IC50 for antiproliferative activity against human HBL100 cells to IC50 for cytotoxicity against human HBL100 cells. The class given is cell-based, HBL-100. The following applies: read-out: Ratio IC50.
The test system of data set [12] is HBL-100. Put plainly: Antiproliferative activity against human HBL100 cells after 70 hrs by alamar blue assay. Type of data set: cell-based. The following applies: HBL-100, 70 h.
Data set [13] is described as follows: Selectivity ratio of IC50 for antiproliferative activity against human A431 cells under dark condition to IC50 for antiproliferative activity against human A431 cells under 0.6 J/cm2 light irradiation. The class given is functional, A-431.
Data set [14] can be described thus: Selectivity ratio of IC50 for antiproliferative activity against human A549 cells under dark condition to IC50 for antiproliferative activity against human A549 cells under 0.6 J/cm2 light irradiation. Type of data set: functional.
Data set [15] is described as follows: Selectivity ratio of IC50 for antiproliferative activity against human MOLT4 cells under dark condition to IC50 for antiproliferative activity against human MOLT4 cells under 0.6 J/cm2 light irradiation. Type of data set: functional, MOLT-4.
Data set [16] is described as follows: Selectivity ratio of IC50 for antiproliferative activity against human MDA-MB-231 cells under dark condition to IC50 for antiproliferative activity against human MDA-MB-231 cells under 0.6 J/cm2 light irradiation. The class given is functional.
Data set [17] relates to A549. Put plainly: Antiproliferative activity against human A549 cells preincubated for 4 hrs followed by 0.6 J/cm2 light irradiation for 10 mins and measured after 70 hrs by alamar blue assay. Type of data set: functional, cell-based. The following applies: A549, light or radiation study.
The test system of data set [18] is A498. Put plainly: Antiproliferative activity against human A498 cells preincubated for 4 hrs followed by 0.6 J/cm2 light irradiation for 10 mins and measured after 70 hrs by alamar blue assay. The following applies: A498, light or radiation study. Type of data set: functional, cell-based.
For data set [19], the system named is A549. Put plainly: Disruption of microtubule network in human A549 cells at 5 times antiproliferative IC50 after 1 to 12 hrs by immunofluorescence assay. The class given is cell-based.
In data set [20] the test system is A549. Put plainly: Antiproliferative activity against human A549 cells after 70 hrs by alamar blue assay. The class given is functional, cell-based. The following applies: A549, 70 h.
In data set [21] the test system is A498. Put plainly: Antiproliferative activity against human A498 cells after 70 hrs by alamar blue assay. Type of data set: functional, cell-based. The following applies: A498, 70 h.
Data set [22] is described as follows: Selectivity ratio of IC50 for antiproliferative activity against human GERL3.0 cells under dark condition to IC50 for antiproliferative activity against human GERL3.0 cells under 0.6 J/cm2 light irradiation. Type of data set: functional.
In data set [23] the test system is Caco-2. Put plainly: Antiproliferative activity against human Caco2 cells preincubated for 4 hrs followed by 0.6 J/cm2 light irradiation for 10 mins and measured after 70 hrs by alamar blue assay. Type of data set: functional, cell-based. The following applies: Caco-2, light or radiation study.
A short description of data set [24]: Induction of supercoiled plasmid complementary DNA3 cleavage at 100 uM after 1 hr by gel electrophoresis method.
A short description of data set [25]: Antiproliferative activity against human GERL3.0 cells after 70 hrs by alamar blue assay. Type of data set: functional, cell-based.
Data set [26] is described as follows: Selectivity ratio of IC50 for antiproliferative activity against human MIAPaCa2 cells under dark condition to IC50 for antiproliferative activity against human MIAPaCa2 cells under 0.6 J/cm2 light irradiation. Type of data set: functional, MIA PaCa-2.
Data set [27] concerns K562. Put plainly: Antiproliferative activity against human K562 cells after 70 hrs by alamar blue assay. The following applies: K562, 70 h. The class given is functional, cell-based.
Data set [28] concerns PC-3. Put plainly: Antiproliferative activity against human PC3 cells preincubated for 4 hrs followed by 0.6 J/cm2 light irradiation for 10 mins and measured after 70 hrs by alamar blue assay. The class given is functional, cell-based. The following applies: PC-3, light or radiation study.
The subject of data set [29] is MOLT-4. Put plainly: Antiproliferative activity against human MOLT4 cells preincubated for 4 hrs followed by 0.6 J/cm2 light irradiation for 10 mins and measured after 70 hrs by alamar blue assay. Type of data set: functional, cell-based. The following applies: MOLT-4, light or radiation study.
Data set [30] deals with MDA-MB-231. Put plainly: Antiproliferative activity against human MDA-MB-231 cells preincubated for 4 hrs followed by 0.6 J/cm2 light irradiation for 10 mins and measured after 70 hrs by alamar blue assay. Type of data set: functional, cell-based. The following applies: MDA-MB-231, light or radiation study.
The test system of data set [31] is PC-3. Put plainly: Antiproliferative activity against human PC3 cells after 70 hrs by alamar blue assay. The following applies: PC-3, 70 h. The class given is functional, cell-based.
The nature of data set [32]: Antiproliferative activity against human GERL3.0 cells preincubated for 4 hrs followed by 0.6 J/cm2 light irradiation for 10 mins and measured after 70 hrs by alamar blue assay. The following applies: light or radiation study. The class given is functional, cell-based.
Data set [33] is described as follows: Selectivity ratio of IC50 for antiproliferative activity against human A498 cells under dark condition to IC50 for antiproliferative activity against human A498 cells under 0.6 J/cm2 light irradiation. Type of data set: functional.
Data set [34] deals with MIA PaCa-2. Put plainly: Antiproliferative activity against human MIAPaCa2 cells preincubated for 4 hrs followed by 0.6 J/cm2 light irradiation for 10 mins and measured after 70 hrs by alamar blue assay. The class given is functional, cell-based. The following applies: MIA PaCa-2, light or radiation study.
The nature of data set [35]: Selectivity ratio of IC50 for antiproliferative activity against human Caco2 cells under dark condition to IC50 for antiproliferative activity against human Caco2 cells under 0.6 J/cm2 light irradiation. The class given is functional, Caco-2.
The test system of data set [36] is A-431. Put plainly: Antiproliferative activity against human A431 cells after 70 hrs by alamar blue assay. Type of data set: functional, cell-based. The following applies: A-431, 70 h.
Data set [37] is described as follows: Selectivity ratio of IC50 for antiproliferative activity against human PC3 cells under dark condition to IC50 for antiproliferative activity against human PC3 cells under 0.6 J/cm2 light irradiation. Type of data set: functional, PC-3.
In data set [38] the test system is A-431. Put plainly: Antiproliferative activity against human A431 cells preincubated for 4 hrs followed by 0.6 J/cm2 light irradiation for 10 mins and measured after 70 hrs by alamar blue assay. The class given is functional, cell-based. The following applies: A-431, light or radiation study.
In data set [39] the test system is Caco-2. Put plainly: Antiproliferative activity against human Caco2 cells after 70 hrs by alamar blue assay. Type of data set: functional, cell-based. The following applies: Caco-2, 70 h.
The subject of data set [40] is MOLT-4. Put plainly: Antiproliferative activity against human MOLT4 cells after 70 hrs by alamar blue assay. The class given is functional, cell-based. The following applies: MOLT-4, 70 h.
Data set [41] is filed under the species Homo sapiens. Put plainly: Disruption of microtubule network in human MIAPaCa2 cells at 5 times antiproliferative IC50 after 1 to 12 hrs by immunofluorescence assay. Type of data set: cell-based.
A short description of data set [42]: Induction of supercoiled plasmid complementary DNA3 cleavage at 100 uM after 1 hr under LED light irradiation by gel electrophoresis method.
Data set [43] has as its system MDA-MB-231. Put plainly: Antiproliferative activity against human MDA-MB-231 cells after 70 hrs by alamar blue assay. Type of data set: functional, cell-based. The following applies: MDA-MB-231, 70 h.
In data set [44] the test system is MIA PaCa-2. Put plainly: Potency index, ratio of 5-fluorouracil IC50 to compound IC50 for antiproliferative activity against human MIAPaCa2 cells. Type of data set: functional.

Usually pIC50 stands for the negative decadic logarithm of the IC50, by convention in mol/L.

pIC50: −log10 of the molar value. Active and inactive are the calls of the source. The calls are words filed in the database; no cut-off is given here.

On to `O=S(=O)(CC#Cc1ccccc1C#CCO)c1c(F)c(F)c(F)c(F)c1F`, for which the pIC50 in data set [1] is 5.41.

In data set [1], `[O-][S+](CC#Cc1c(C#CCO)sc2ccccc12)c1c(F)c(F)c(F)c(F)c1F` (stereo unspecified) showed a pIC50 of 5.66.

Turning to `[O-][S+](CC#Cc1ccccc1)c1c(F)c(F)c(F)c(F)c1F` (stereo unspecified), in data set [1], the pIC50 was 5.11.

As to `CCOC(=O)c1ccc(C#CCO)c(C#CC[S+]([O-])c2c(F)c(F)c(F)c(F)c2F)c1` (stereo unspecified), the pIC50 in [1] was 5.80.

With `[O-][S+](CC#Cc1ccccc1C#CCCCCO)c1c(F)c(F)c(F)c(F)c1F` (stereo unspecified), the pIC50 in [1] was less than 5.00.

Turning to `COc1ccc(NS(=O)(=O)c2c(F)c(F)c(F)c(F)c2F)cc1F` [BATABULIN], the pIC50 was 5.20 in data set [2]; 4.91 in [3]; less than 4.40 in data set [4]; 4.79 in data set [5]; less than 4.40 in data set [6]; 4.33 in [10]. The molecule further showed a pIC50 in data set [12] of 6.70. Further, the outcome in data set [7] was Active. In addition, the selectivity ratio in data set [8] was greater than 3.2; in data set [11] it was greater than 190. Also, in data set [9], the “Ratio IC50” value is on record as 35.8.

Take `[O-][S+](CC#Cc1cccnc1C#CCO)c1c(F)c(F)c(F)c(F)c1F` (stereo unspecified): the pIC50 is 6.22 in data set [2]; 6.00 in data set [3]; 6.10 in data set [17]; 5.49 in data set [18]; 5.80 in data set [20]; 5.47 in data set [21]. In addition, the pIC50 in data set [23] is 6.30; in data set [4], 4.57; in data set [5], 5.06; in [25] it was 6.05; in data set [6], 4.71; in data set [27], 6.15. The pIC50 is 6.30 in data set [28]; 6.40 in data set [29]; 6.30 in [30]; 5.85 in [31]; 6.22 in [32]; 4.69 in data set [10]. Moreover, the pIC50 was 6.70 in [34]; 5.82 in data set [36]; 6.10 in [1]; 5.96 in [38]; 6.00 in data set [39]; 6.22 in data set [40]. The values for the pIC50 in [12] and in [43] were 5.85 and 5.92, respectively. For the same molecule, the “Ratio IC50” value in data set [13] was 1.3; in data set [14] it was 2; in [15], 1.6; in [16], 2.2; in data set [22], 1.4; in [26], 3.7. Further, the “Ratio IC50” value came to 25.3 in [9]; 1.1 in data set [33]; 2 in data set [35]; 2.5 in [37]; 6 in [44]. Besides, the outcome in [19], in data set [7], in [41] and in data set [42] was Active. In addition, the result in data set [24] was inactive. Also, the selectivity ratio in [8] worked out at 18.6; in data set [11], 19.3.

In data set [1], `Nc1ccn([C@@H]2O[C@H](CO)[C@@H](O)C2(F)F)c(=O)n1` [GEMCITABINE] showed a pIC50 of 6.92.

Values taken from ChEMBL document CHEMBL4196030, “Enediynes bearing polyfluoroaryl sulfoxide as new antiproliferative agents with dual targeting of microtubules and DNA” (Eur J Med Chem, 2018).
